How the values were obtained:
[1] = Cell cycle arrest in mouse B16F10 cells assessed as accumulation at G0/G1 phase at cytotoxic IC50 after 72 hrs by propidium iodide staining based flow cytometry (reference value: 50.69 +/- 0.61%); format: functional, B16-F10
HT-29 [2] = experiment: Disruption of mitochondrial membrane potential in human HT-29 cells assessed as rhodamine123 positive cells at cytotoxic IC50 after 72 hrs by propidium iodide staining based fluorescence spectroscopic analysis (reference value: 94.25 +/- 0.35%); format: functional
B16-F10 [3] = experiment: Potency index, ratio of oleanolic acid IC50 to compound IC50 for mouse B16F10 cells; format: functional
HT-29 [4] = experiment: Induction of apoptosis in human HT-29 cells assessed as late apoptotic cells at cytotoxic IC50 after 72 hrs by Annexin V-FITC/propidium iodide staining based flow cytometry (reference value: 0.65 +/- 0.35%); format: functional
[5] = Disruption of mitochondrial membrane potential in mouse B16F10 cells assessed as rhodamine123 positive cells at cytotoxic IC50 after 72 hrs by propidium iodide staining based fluorescence spectroscopic analysis (reference value: 95.6 +/- 0.57%); format: functional, B16-F10
[6] = Cell cycle arrest in mouse B16F10 cells assessed as accumulation at G2/M phase at cytotoxic IC50 after 72 hrs by propidium iodide staining based flow cytometry (reference value: 1.01 +/- 0.13%); format: functional, B16-F10
HepG2 [7] = experiment: Cell cycle arrest in human HepG2 cells assessed as accumulation at S phase at cytotoxic IC50 after 72 hrs by propidium iodide staining based flow cytometry (reference value: 54.71 +/- 2.37%); format: functional
HT-29 [8] = experiment: Cytotoxicity against human HT-29 cells assessed as growth inhibition after 72 hrs by MTT assay; format: functional, cell-based; details: HT-29, 72 h
[9] = Cell cycle arrest in mouse B16F10 cells assessed as accumulation at S phase at cytotoxic IC50 after 72 hrs by propidium iodide staining based flow cytometry (reference value: 48.31 +/- 0.74%); format: functional, B16-F10
HepG2 [10] = experiment: Cell cycle arrest in human HepG2 cells assessed as accumulation at G2/M phase at cytotoxic IC50 after 72 hrs by propidium iodide staining based flow cytometry (reference value: 8.47 +/- 2.55%); format: functional
HepG2 [11] = experiment: Induction of apoptosis in human HepG2 cells assessed as early apoptotic cells at cytotoxic IC50 after 72 hrs by Annexin V-FITC/propidium iodide staining based flow cytometry (reference value: 0.3 +/- 0.01%); format: functional
HepG2 [12] = experiment: Potency index, ratio of oleanolic acid IC50 to compound IC50 for human HepG2 cells; format: functional
HT-29 [13] = experiment: Potency index, ratio of oleanolic acid IC50 to compound IC50 for human HT-29 cells; format: functional
HT-29 [14] = experiment: Disruption of mitochondrial membrane potential in human HT-29 cells assessed as rhodamine123 negative cells at cytotoxic IC50 after 72 hrs by propidium iodide staining based fluorescence spectroscopic analysis (reference value: 5.8 +/- 0.42%); format: functional
HT-29 [15] = experiment: Cell cycle arrest in human HT-29 cells assessed as accumulation at G0/G1 phase at cytotoxic IC50 after 72 hrs by propidium iodide staining based flow cytometry (reference value: 55.18 +/- 0.22%); format: functional
[16] = Induction of apoptosis in mouse B16F10 cells assessed as necrotic cells at cytotoxic IC50 after 72 hrs by Annexin V-FITC/propidium iodide staining based flow cytometry (reference value: 0.75 +/- 0.07%); format: functional, B16-F10
HepG2 [17] = experiment: Cytotoxicity against human HepG2 cells assessed as growth inhibition after 72 hrs by MTT assay; format: functional, cell-based; details: HepG2, 72 h
[18] = Induction of apoptosis in mouse B16F10 cells assessed as late apoptotic cells at cytotoxic IC50 after 72 hrs by Annexin V-FITC/propidium iodide staining based flow cytometry (reference value: 0.75 +/- 0.21%); format: functional, B16-F10
HT-29 [19] = experiment: Induction of apoptosis in human HT-29 cells assessed as early apoptotic cells at cytotoxic IC50 after 72 hrs by Annexin V-FITC/propidium iodide staining based flow cytometry (reference value: 1.65 +/- 0.07%); format: functional
[20] = Induction of apoptosis in mouse B16F10 cells assessed as live cells at cytotoxic IC50 after 72 hrs by Annexin V-FITC/propidium iodide staining based flow cytometry (reference value: 97.55 +/- 0.5%); format: functional, B16-F10
HepG2 [21] = experiment: Disruption of mitochondrial membrane potential in human HepG2 cells assessed as rhodamine123 positive cells at cytotoxic IC50 after 72 hrs by propidium iodide staining based fluorescence spectroscopic analysis (reference value: 88.3 +/- 8.87%); format: functional
HepG2 [22] = experiment: Induction of apoptosis in human HepG2 cells assessed as live cells at cytotoxic IC50 after 72 hrs by Annexin V-FITC/propidium iodide staining based flow cytometry (reference value: 99.55 +/- 0.07%); format: functional
HepG2 [23] = experiment: Disruption of mitochondrial membrane potential in human HepG2 cells assessed as rhodamine123 negative cells at cytotoxic IC50 after 72 hrs by propidium iodide staining based fluorescence spectroscopic analysis (reference value: 11.7 +/- 6.8%); format: functional
HT-29 [24] = experiment: Induction of apoptosis in human HT-29 cells assessed as necrotic cells at cytotoxic IC50 after 72 hrs by Annexin V-FITC/propidium iodide staining based flow cytometry (reference value: 1.05 +/- 0.35%); format: functional
HT-29 [25] = experiment: Induction of apoptosis in human HT-29 cells assessed as live cells at cytotoxic IC50 after 72 hrs by Annexin V-FITC/propidium iodide staining based flow cytometry (reference value: 96.65 +/- 0.78%); format: functional
[26] = Induction of apoptosis in mouse B16F10 cells assessed as early apoptotic cells at cytotoxic IC50 after 72 hrs by Annexin V-FITC/propidium iodide staining based flow cytometry (reference value: 0.75 +/- 0.07%); format: functional, B16-F10
HT-29 [27] = experiment: Cell cycle arrest in human HT-29 cells assessed as accumulation at G2/M phase at cytotoxic IC50 after 72 hrs by propidium iodide staining based flow cytometry (reference value: 6.23 +/- 1.7%); format: functional
HepG2 [28] = experiment: Induction of apoptosis in human HepG2 cells assessed as late apoptotic cells at cytotoxic IC50 after 72 hrs by Annexin V-FITC/propidium iodide staining based flow cytometry relative to control; format: functional
[29] = Disruption of mitochondrial membrane potential in mouse B16F10 cells assessed as rhodamine123 negative cells at cytotoxic IC50 after 72 hrs by propidium iodide staining based fluorescence spectroscopic analysis (reference value: 4.45 +/- 0.64%); format: functional, B16-F10
HT-29 [30] = experiment: Cell cycle arrest in human HT-29 cells assessed as accumulation at S phase at cytotoxic IC50 after 72 hrs by propidium iodide staining based flow cytometry (reference value: 48.31 +/- 1.49%); format: functional
HepG2 [31] = experiment: Induction of apoptosis in human HepG2 cells assessed as necrotic cells at cytotoxic IC50 after 72 hrs by Annexin V-FITC/propidium iodide staining based flow cytometry (reference value: 0.1 +/- 0.01%); format: functional
HepG2 [32] = experiment: Cell cycle arrest in human HepG2 cells assessed as accumulation at G0/G1 phase at cytotoxic IC50 after 72 hrs by propidium iodide staining based flow cytometry (reference value: 39.41 +/- 1.56%); format: functional
[33] = Cytotoxicity against mouse B16F10 cells assessed as growth inhibition after 72 hrs by MTT assay; format: functional, cell-based; details: B16-F10, 72 h
HT-29 [34] = experiment: Potency index, ratio of maslinic acid IC50 to compound IC50 for human HT-29 cells; format: functional
B16-F10 [35] = experiment: Potency index, ratio of maslinic acid IC50 to compound IC50 for mouse B16F10 cells; format: functional
HepG2 [36] = experiment: Potency index, ratio of maslinic acid IC50 to compound IC50 for human HepG2 cells; format: functional

Row | Compound | Activity [1] | Activity (HT-29 [2]) | Activity (HT-29 [4]) | Activity [5] | Activity [6] | Activity (HepG2 [7]) | IC50 (HT-29 [8]) | Activity [9] | Activity (HepG2 [10]) | Activity (HepG2 [11]) | Activity (HT-29 [14]) | Activity (HT-29 [15]) | Activity [16] | IC50 (HepG2 [17]) | Activity [18] | Activity (HT-29 [19]) | Activity [20] | Activity (HepG2 [21]) | Activity (HepG2 [22]) | Activity (HepG2 [23]) | also measured
1 | CC1(C)CC[C@]2(C(=O)NCCCOCCOCCOCCCN)CC[C@]3(C)C(=CC[C@@H]4[C@@]5(C)CC[C@H](O)C(C)(C)[C@@H]5CC[C@]43C)[C@@H]2C1 | 63.89% | 23.75% | 7.45% | 20.75% | 4.78% | 46.97% | 3.58 µM | 31.33% | 0.34% | 35.9% | 76.3% | 87.11% | 0% | 0.22 µM | 12.85% | 19.7% | 27.55% | 80.45% | 41.35% | 19.6% | Ratio IC50 (B16-F10 [3]): 28.1; Ratio IC50 (HepG2 [12]): 962.7; Ratio IC50 (HT-29 [13]): 120.1; Activity (HT-29 [24]): 0.25%; Activity (HT-29 [25]): 72.45%; Activity [26]: 59.65%; Activity (HT-29 [27]): 8.12%; Activity (HepG2 [28]): 22.45%; Activity [29]: 79.3%; Activity (HT-29 [30]): 4.78%; Activity (HepG2 [31]): 0.35%; Activity (HepG2 [32]): 52.7%; IC50 [33]: 3.78 µM
2 | COCCOCCOCC(=O)O[C@H]1CC[C@]2(C)[C@H]3CC=C4[C@@H]5CC(C)(C)CC[C@]5(C(=O)O)CC[C@@]4(C)[C@]3(C)CC[C@H]2C1(C)C | 74.28% | 88.65% | 13.45% | 79.45% | 0.28% | 45.44% | 13.5 µM | 25.44% | 14.18% | 38.65% | 11.35% | 63.47% | 0.35% | 17.5 µM | 39.6% | 34.7% | 52.75% | 13.95% | 43.5% | 86.05% | Ratio IC50 (B16-F10 [3]): 6.2; Ratio IC50 (HepG2 [12]): 12.1; Ratio IC50 (HT-29 [13]): 31.9; Activity (HT-29 [24]): 0%; Activity (HT-29 [25]): 51.85%; Activity [26]: 6.8%; Activity (HT-29 [27]): 0%; Activity (HepG2 [28]): 17.7%; Activity [29]: 20.65%; Activity (HT-29 [30]): 49.98%; Activity (HepG2 [31]): 0.2%; Activity (HepG2 [32]): 38.88%; IC50 [33]: 17.2 µM
3 | COCCOCCOCC(=O)O[C@@H]1C[C@]2(C)[C@H]3CC=C4[C@@H]5CC(C)(C)CC[C@]5(C(=O)OCc5ccccc5)CC[C@@]4(C)[C@]3(C)CC[C@H]2C(C)(C)[C@H]1OC(=O)COCCOCCOC | 83.03% | 3.15% | 6.7% | 81.35% | 3.85% | 19.76% | 31.6 µM | 13.13% | 15.04% | 18.65% | 96.9% | 91.87% | 0.8% | 12.8 µM | 67.25% | 43.95% | 2.7% | 45.7% | 37% | 54.25% | Ratio IC50 (HT-29 [34]): 1; Ratio IC50 (B16-F10 [35]): 1.7; Ratio IC50 (HepG2 [36]): 7.8; Activity (HT-29 [24]): 0.15%; Activity (HT-29 [25]): 48.95%; Activity [26]: 29.6%; Activity (HT-29 [27]): 1.51%; Activity (HepG2 [28]): 44.35%; Activity [29]: 18.6%; Activity (HT-29 [30]): 6.63%; Activity (HepG2 [31]): 0%; Activity (HepG2 [32]): 65.2%; IC50 [33]: 21.1 µM
